Here are results for twelve compounds from US5795907A, “Gastin and CCK receptor ligands” (James Black Foundation Limited, priority 1994, dated 1998).

In one assay the target is T1, gastrin (Rattus norvegicus, UniProt P30553).
T1 construct: The stomach was lowered into a jacketed organ bath containing 40 ml of buffered solution; from tissue; host or cells: isolated perfused whole stomach of immature rats (ca. 21 days old)
T1 sequence (P30553 1-452): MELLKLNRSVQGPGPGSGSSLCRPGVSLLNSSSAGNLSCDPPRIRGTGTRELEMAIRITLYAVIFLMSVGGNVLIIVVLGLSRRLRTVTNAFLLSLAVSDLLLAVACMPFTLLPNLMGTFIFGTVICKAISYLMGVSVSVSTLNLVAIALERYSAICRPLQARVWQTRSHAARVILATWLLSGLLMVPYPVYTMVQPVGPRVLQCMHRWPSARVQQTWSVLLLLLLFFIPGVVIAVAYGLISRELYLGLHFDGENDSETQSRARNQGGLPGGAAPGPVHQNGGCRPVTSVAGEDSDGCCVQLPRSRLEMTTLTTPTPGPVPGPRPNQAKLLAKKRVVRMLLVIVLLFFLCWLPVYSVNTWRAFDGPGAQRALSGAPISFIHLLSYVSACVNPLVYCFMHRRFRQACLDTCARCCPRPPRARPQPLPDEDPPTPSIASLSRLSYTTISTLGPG
Put plainly: gastrin antagonist activity in an immature rat stomach assay (pentagastrin-stimulated acid secretion). As to conditions: cumulative pentagastrin dose-response curves after 60 min with drug; for Kb: read-out: Gastrin pKB (converted). Here is the method: The compounds of the examples were also tested for gastrin antagonist activity in an immature rat stomach assay. The procedure was as follows:
The oesophagus of immature rats (33-50 g, ca. 21 days old) was ligated at the level of the cardiac sphincter and the duodenal sphincter was cannulated. The stomach was excised and flushed with ca. 1 ml of unbuffered physiological saline solution. The fundus was punctured and cannulated. A further 4-5 ml of unbuffered solution was flushed through the stomach to ensure the preparation was not leaking. The stomach was lowered into a jacketed organ bath containing 40 ml of buffered solution containing 3×10^-8 M 5-methylfurmethide, maintained at 37° and gassed vigorously with 95% O2 /5% CO2. The stomach was continuously perfused at a rate of 1 ml min^-1 with unbuffered solution gassed with 100% O2 with the perfusate passing over an internally referenced pH-electrode fixed 12 cm above the stomach.
After 120 min of stabilisation the drugs were added directly to the serosal solution in the organ bath and after a further 60 min cumulative pentagastrin dose-response curves were started. Changes in acid secretion were monitored and the curves analysed according to Black et.al., Br. J. Pharmacol., 1985, 86, 581.

A further assay concerns the target T2, CCKB receptor (Mus musculus, UniProt P56481).
T2 construct: The cortex was dissected, weighed and homogenised in 40ml ice-cold buffer; tissue Charles River (supplier of the CD1 mice); host or cells: cerebral cortex membranes of male CD1 mice
T2 sequence (P56481 1-453): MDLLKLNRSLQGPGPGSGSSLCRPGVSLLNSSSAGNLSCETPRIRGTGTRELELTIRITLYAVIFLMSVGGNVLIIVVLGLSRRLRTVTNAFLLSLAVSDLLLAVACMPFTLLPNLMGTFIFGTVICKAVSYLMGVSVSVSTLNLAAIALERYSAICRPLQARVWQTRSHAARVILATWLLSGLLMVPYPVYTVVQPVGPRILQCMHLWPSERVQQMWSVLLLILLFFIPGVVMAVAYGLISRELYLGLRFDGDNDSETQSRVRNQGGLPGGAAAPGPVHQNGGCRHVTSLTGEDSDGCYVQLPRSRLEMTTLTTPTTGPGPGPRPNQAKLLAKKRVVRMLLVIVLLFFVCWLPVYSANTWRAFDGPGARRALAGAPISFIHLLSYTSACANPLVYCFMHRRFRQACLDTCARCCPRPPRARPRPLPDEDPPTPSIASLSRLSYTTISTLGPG
Put plainly: CCKB receptor radioligand binding assay in mouse cortical membranes ([125I]-CCK8S). As to conditions: [125I]-CCK8S 200 pM, 150 min at 21±3°; for Ki: read-out: CCKB pKi (converted). The method, then: The compounds of the examples were tested for binding at the CCKB receptor in mouse cortical membranes by means of a radioligand binding assay. The procedure was as follows:
The whole brains from male mice (CD1 22-25 g; Charles River) were removed and placed in ice-cold buffer (pH7.2 @ 21±3°) of the following composition (mM); 10 HEPES, 130 NaCl, 4.7 KCl, 5 MgCl2, 1 EDTA and containing 0.25g.^-1 bacitracin. The cortex was dissected, weighed and homogenised in 40ml ice-cold buffer using a Teflon-in-glass homogeniser. The homogenate was centrifuged at 39,800g for 20 min at 4°, the supernatant discarded and the pellet resuspended by homogenisation in fresh buffer. The homogenate was recentrifuged (39,800 g; 20 min @ 4°) and the final pellet was resuspended in HEPES buffer to give a tissue concentration of 2 mg.ml^-1 (original wet weight).
The membranes ([…]) were incubated for 150 min at 21±3° in a final volume of 0.5 ml with HEPES buffer containing [^125 I]-CCK8S (0.05 ml; 200 pM NEN 2200 Ci.mmol^-1) and competing compound. Total and non-specific binding of [^125 I]-CCK8S were defined using 0.05 ml of buffer and 0.05 ml of […] L-365,260, respectively. The assay was terminated by rapid filtration through pre-soaked Whatman GF/B filters using a Brandell Cell harvester. The filters were washed (3×3 ml) with ice-cold 50 mM Tris-HCl (pH7.4 @ 4° C.) and bound radioactivity determined by counting (1 min.) in a gamma-counter.

A further assay concerns the target T3, CCKA (Cavia porcellus, UniProt Q63931).
T3 construct: The pancreatata were homogenised in 40 ml ice-cold HEPES buffer using a polytron; from tissue; host or cells: pancreas membranes of male Dunkin Hartley guinea-pigs
T3 sequence (Q63931 1-430): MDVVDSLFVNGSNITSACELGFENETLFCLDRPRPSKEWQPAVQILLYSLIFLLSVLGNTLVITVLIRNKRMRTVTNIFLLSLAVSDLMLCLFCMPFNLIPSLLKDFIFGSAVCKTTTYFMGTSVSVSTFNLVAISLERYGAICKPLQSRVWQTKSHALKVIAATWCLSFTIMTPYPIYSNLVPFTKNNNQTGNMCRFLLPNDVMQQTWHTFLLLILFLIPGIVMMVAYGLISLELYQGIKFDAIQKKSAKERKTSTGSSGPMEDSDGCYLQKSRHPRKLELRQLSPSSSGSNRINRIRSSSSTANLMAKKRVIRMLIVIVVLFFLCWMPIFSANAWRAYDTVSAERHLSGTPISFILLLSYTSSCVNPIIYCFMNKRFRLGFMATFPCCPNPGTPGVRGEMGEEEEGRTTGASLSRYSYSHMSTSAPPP
Put plainly: CCKA radioligand binding assay in guinea-pig pancreas membranes ([125I]-CCK8(S)). To be noted: PD134,308 present, 150 minutes at 21±3°, read-out: CCKA pKi (converted). The method, then: The compounds of the examples were also tested in a CCKA as follows:
The pancreatata were removed from male guinea-pigs (200-300 g; Dunkin Hartley) and placed in ice-cold HEPES buffer (pH 7.2 @ 21 ±3). The pancreatata were homogenised in 40 ml ice-cold HEPES buffer using a polytron (Brinkmann, PT10, setting 10) 4×1 second. The homogenate was centrifuged at 39,800 g for 15 min at 4°. The supernatant was discarded and the pellet re-suspended using a Teflon-in-glass homogeniser in 20 volumes of fresh buffer and re-centrifuged as above.
The final pellet was re-suspended using a Teflon-in-glass homogeniser to a tissue concentration of 1 mg.ml^-1 (original wet weight), and filtered through 500 μm pore-size Nytex mesh.
The membranes (400 μl; containing 0.375 μM PD134,308) are incubated for 150 minutes at 21±3° in a final volume of 0.5 ml with HEPES buffer containing [^125 I]-CCK8 (S) (50 μl; […]) and competing compound. Total and non-specific binding of [^125 I]-CCK8 (S) are defined using 50 μl of buffer and 50 μl of 100 nM L-364,718 respectively. The assay is terminated by rapid filtration through pre-soaked Whatman GF/B filters using a Brandell Cell Harvester. The filters were washed (3×3 ml) with ice-cold 50 mM Tris HCl (pH 7.4 at 4°) and bound radioactivity is determined by counting (1 min) in a gamma counter.

Take “5-(1S-(3,5-dicarboxyphenylaminocarbonyl)-5-aminopentylaminocarbonyl)-6-(1-adamantanemethylaminocarbonyl)-indole and regioisomer with substituents at positions 5 and 6 reversed [Example 65]”: the “Gastrin pKB” value at gastrin came to 8.2. For the same compound, the “CCKB pKi” value at CCKB receptor came out at 7.3.

Take `O=C(O)CNC(=O)[C@H]1CCCN1C(=O)c1cc2ccccc2cc1C(=O)NCC12CC3CC(CC(C3)C1)C2` [Example 11, 2-(2R-carboxymethylaminocarbonylpyrrolidinocarbonyl)-3-(1-adamantanemethylaminocarbonyl)-naphthalene]: the Kb on gastrin was 251 nM. For the same compound, on CCKB receptor, the Ki was 1260 nM.

Consider `COC(=O)c1cc(NC(=O)[C@H](Cc2ccccc2)NC(=O)c2cc3cc[nH]c3cc2C(=O)NCC23CC4CC(CC(C4)C2)C3)cc(C(=O)OC)c1` [Example 35, 5-(1S-(3,5-dimethoxycarbonylphenylaminocarbonyl)-2-phenylethylaminocarbonyl)-6-(1-adamantanemethylaminocarbonyl)-indole], for which the Kb at gastrin is 2 nM. On CCKB receptor, the Ki was 63.1 nM.

Take `CN(CC12CC3CC(CC(C3)C1)C2)C(=O)c1cc2ccccc2cc1C(=O)N1CCC[C@@H]1C(=O)O` [Example 9, 2-(2R-carboxypyrrolidino-carbonyl)-3-(1-adamantanemethyl(N-methyl)aminocarbonyl)-naphthalene]: the Kb on gastrin is 501 nM. The Ki at CCKB receptor was 251 nM.

Take `C[C@H](NC(=O)[C@H]1CCCN1C(=O)c1cc2ccccc2cc1C(=O)N(C)CC12CC3CC(CC(C3)C1)C2)C(=O)O` [Example 13, 2-(2R-(1S-carboxyethylaminocarbonyl)pyrrolidinocarbonyl)-3-(1-adamantanemethyl(N-methyl)aminocarbonyl)-naphthalene]: the Kb on gastrin is 398 nM. Further, the Ki at CCKB receptor was 2000 nM.

Regarding `O=C(O)c1cc(NC(=O)[C@H](Cc2ccc(I)cc2)NC(=O)c2cc3cc[nH]c3cc2C(=O)NCC23CC4CC(CC(C4)C2)C3)cc(C(=O)O)c1` [Example 32, 5-(1S-(3,5-dicarboxyphenylaminocarbonyl)-2-(4-iodophenyl)ethylaminocarbonyl)-6-(1-adamantanemethylaminocarbonyl)-indole], at gastrin, the Kb is 0.794 nM. Further, at CCKB receptor, the Ki was 3.98 nM.

Consider “5-(1S-(3,5-methoxyaminocarbonylphenylaminocarbonyl)-2-phenylethylaminocarbonyl)-6-(1-adamantanemethylaminocarbonyl)-indole and regioisomer with substituents at positions 5 and 6 reversed [Example 38]”, for which, at gastrin, the “Gastrin pKB” value was 7.1. Moreover, the “CCKB pKi” value on CCKB receptor came out at 7.5.

For the compound `O=C(O)c1cc(NC(=O)[C@H](Cc2ccccc2F)NC(=O)c2cc3[nH]cnc3cc2C(=O)NCC23CC4CC(CC(C4)C2)C3)cc(C(=O)O)c1` [Example 63, 5-(1S-(3,5-dicarboxyphenylaminocarbonyl)-2-(2-fluorophenyl)ethylaminocarbonyl)-6-(1-adamantanemethylaminocarbonyl)-benzimidazole], on gastrin, the “Gastrin pKB” value was 9.1. Also, the “CCKB pKi” value on CCKB receptor was 8.4.

As for `O=C(O)c1cc(NC(=O)[C@@H](Cc2ccccc2)NC(=O)c2cc3ccccc3cc2C(=O)NCC23CC4CC(CC(C4)C2)C3)cc(C(=O)O)c1` [Example 23, 2-(1R-(3,5-dicarboxyphenylaminocarbonyl) -2-phenylethylaminocarbonyl)-3-(1-adamantanemethylaminocarbonyl)-naphthalene], on gastrin, the Kb is 39.8 nM.

Regarding `Cn1ccc2cc(C(=O)N[C@@H](Cc3ccccc3)C(=O)Nc3cc(C(=O)O)cc(C(=O)O)c3)c(C(=O)NCC34CC5CC(CC(C5)C3)C4)cc21` [Example 36, 5-(1S-(3,5-dicarboxyphenylaminocarbonyl)-2-phenylethylaminocarbonyl)-6-(1-adamantanemethylaminocarbonyl)-N-methyl-indole], the Ki on CCKA was 3160 nM; on CCKB receptor it was 0.398 nM.

For `O=C(NCC12CC3CC(CC(C3)C1)C2)c1cc2cc[nH]c2cc1C(=O)N[C@@H](Cc1ccccc1)C(=O)Nc1cccc(-c2nn[nH]n2)c1` [Example 101, 6-(1S-(3-tetrazolylphenylaminocarbonyl)-2-phenylethylaminocarbonyl)-5-(1-adamantanemethylaminocarbonyl)-indole], the Ki on CCKA is 251 nM; at CCKB receptor, 39.8 nM.

As to `O=C(O)c1cccc2cccc(C(=O)NCC34CC5CC(CC(C5)C3)C4)c12` [Example 20, 1-(1-adamantanemethylaminocarbonyl)-8-naphthoic acid], the Ki at CCKA and on CCKB receptor was 10000 nM in each case.
